Source: patent US20220000871A1, “METHODS AND COMPOSITIONS FOR TREATING NEURODEGENERATIVE DISEASES USING MODULATORS OF PHOSPHOGLYCERATE KINASE 1 (PGK1) ACTIVITY” (UNIVERSITY OF IOWA RESEARCH FOUNDATION, priority 2019, published 2022)
“And” between values parts separate entries of the source, which are not always exact repeats. Identical values can stand only once.

What was measured:
PINK1^5 flies = assay: PINK1^5 fly genetic model of PD; assay type: in vivo, Drosophila; settings: TZ day 1 after hatching to day 10
Description: N=6, with 80 flies for each treatment in each trial. […] N=3, with 100 flies for each treatment in each trial. […] N=6, with 100 flies for each treatment in each trial. […] Data are from individual groups of flies (A-F) and individual mice (I-K). Bars and whiskers indicate mean±SEM. […] In the figures, *p<0.05, **p<0.01, ***p<0.001. For panel D, the statistical analysis was 1-way ANOVA with Tukey, and for all other panels, a Kruskal-Wallis with a Dwass-Steele-Critchlow-Fligner.
A genetic model of PD in PINK1^5 flies. […] N=3, with 100 flies for each treatment in each trial.

LRRK^ex1 male flies = assay: LRRK^ex1 fly genetic model of PD; assay type: in vivo, Drosophila; settings: TZ 1 μM for 10 days
Description: FIG. 5. TZ improves TH levels and motor performance in genetic models of PD. A-E) Wild-type (w^1118) and PINK1^5 flies received TZ or vehicle for 10 days beginning on the first day after eclosion. Day 10 assays included: (A) Example of wing posture defect and percentage of w^1118 and PINK1^5 flies with wing posture defects. N=6, with 80 flies for each treatment in each trial. (B,C) Example of TH western blot (B) and quantification of TH (C). N=5, with 40 fly heads for each treatment in each trial. (D) ATP content in brains (relative to w^1118). N=3, with 200 fly heads for each treatment in each trial. (E) Climbing behavior. N=3, with 100 flies for each treatment in each trial. F) Climbing behavior of LRRK^ex1 male flies. N=6, with 100 flies for each treatment in each trial. G-K) TZ delivery to mThyl-hSNCA transgenic mice. (G) Schematic for experiments in panels H-K. (H) Example of western blot of α-synuclein in striatum and SNc. (I,J) Quantification of α-synuclein in striatum and SNc. N=5. (K) Duration that mice remained on an accelerating rotarod. N=5. Data are from individual groups of flies (A-F) and individual mice (I-K). Bars and whiskers indicate mean±SEM. Blue indicates controls and red indicates TZ treatment. In the figures, *p<0.05, **p<0.01, ***p<0.001. […]
LRRK^ex1 male flies were treated with TZ (1 μM) for 10 days after eclosion. The […] were recorded after 10 days of treatment.

patients with PD = assay: Analysis of the PPMI database (MDS-UPDRS Part 3 motor progression); assay type: in vivo, human; settings: for rate of motor function decline / progression of motor disability: PPMI database, vs controls; for MDS-UPDRS Part 3 Slope of change/month, mean ± S.E.: PPMI, male PD patients, baseline to ~1 year
Description: FIG. 7. TZ and related drugs slow progression of motor defects for patients with PD enrolled in the PPMI database. MDS-UPDRS Part 3 (motor) scores of PD patients in the PPMI database. Patients were taking TZ/DZ/AZ (blue, N=13), tamsulosin (green, N=24), or neither (red, N=269). Data are scores at entry into PPMI through ˜1 year and include all measures between those times. All patients taking these drugs were males prescribed TZ/DZ/AZ or tamsulosin without breaks for benign prostatic hyperplasia or undefined urological problems. Lines are plotted from linear mixed effect regression analyses. By maximum likelihood estimation, TZ/DZ/AZ differed from controls (P=0.012).
FIG. 18. UPDRS scores for 13 patients with PD taking TZ/DZ/AZ. Each set of data points and lines indicates an individual patient. Bold line and shading indicate the linear regression line and 95% confidence intervals for the 13 patients. See legend of FIG. 7 for more information.
We analyzed data from the PPMI database (21) for patients taking TZ alone, TZ/DZ/AZ, or tamsulosin. We tested if these drugs influenced the rate of motor progression as measured by part III of the Movement Disorder Society's Unified Parkinson's Disease Rating Scale ([…]), which is a metric of motor disability in Parkinson's disease (22). For this analysis, only participants who were using TZ/DZ/AZ or tamsulosin at their baseline PPMI visit were included in the drug groups. PPMI protocol dictates that the fourth visit should occur approximately one year after the baseline visit; accordingly, any visit that occurred between the baseline visit and the fourth PPMI visit were included. Participants also had to have more than one visit to be included. Of the 13 participants in the TZ/DZ/AZ group, 11 were taking the medication-of-interest without breaks until their fourth visit. One participant was taking DZ at the time of their baseline visit, but discontinued within 30 days of their baseline visit. That participant was only considered to be using DZ during their first and second visits. Another participant was using AZ at their baseline visit and for approximately 5 months after that. This participant was considered to be taking AZ during their first and second visits. If these two participants were excluded from the analysis and only participants who were taking the medication-of-interest without breaks in therapy were included, the results change only marginally. The TZ/DZ/AZ group (n=11) has a slope of change of 0.02±0.21 compared to 0.53±0.05 in the control group (n=269, p=0.015). […]
Only MDS-UPDRS readings that were obtained when the participants were not yet taking a PD medication or were in the practically defined OFF state (at least 6 hours after the last dose of levodopa or any other anti-PD medication) were utilized for this analysis. […]

PD-free enrollees = assay: Truven database: incidence and survival analysis of PD diagnoses; assay type: in vivo, human; settings: matched cohort, 78,444 PD-free enrollees per group
Description: A cohort of enrollees newly started on TZ/DZ/AZ or tamsulosin was constructed. We defined newly started as at least 365 days of enrollment with prescription drug coverage prior to the first fill event for TZ/DZ/AZ or tamsulosin. Additionally, we required the enrollee to be PD-free at the time of the first fill (no prior PD diagnosis code). A total of 78,509 enrollees on TZ/DZ/AZ were identified and these enrollees were followed for an average of 285±382 days with a total of 118 cases of PD (incidence=0.15%). We matched each TZ/DZ/AZ user to a tamsulosin user of the same age at medication start and with the minimum difference in the duration of follow up. We were able to successfully match 78,444 of the 78,509 enrollees on TZ/DZ/AZ to an enrollee on tamsulosin. In the matched cohort, enrollees taking TZ/DZ/AZ have, on average, 284±381 days of follow up compared to 284±382 days of follow up in those taking tamsulosin. Of the 78,444 enrollees taking TZ/DZ/AZ, a total of 118 (0.15%) developed PD compared to 190 (0.24%) among those taking tamsulosin. We used a Cox proportional hazards regression to model the relative hazard of developing PD among those in the matched cohort taking TZ/DZ/AZ compared to those taking tamsulosin while accounting for censoring due to stopping the medication or exiting the data before developing PD. […]

Structure (SMILES)	wing posture defects (PINK1^5 flies)	motor deficits (climbing behavior) (LRRK^ex1 male flies)	rate of motor function decline / progression of motor disability (patients with PD)	MDS-UPDRS Part 3 Slope of change/month, mean ± S.E. (patients with PD)	enrollees who developed PD (PD-free enrollees)	number of people who developed PD (PD-free enrollees)
COc1cc2nc(N3CCN(C(=O)C4CCCO4)CC3)nc(N)c2cc1OC (centres unmarked) [TZ, terazosin]	partially reversed	attenuated	slower	0.01 ± 0.25	–	–
CCOc1ccccc1OCCN[C@H](C)Cc1ccc(OC)c(S(N)(=O)=O)c1 [tamsulosin]	–	–	failed to slow	0.39 ± 0.14	0.25% and 0.24%	190
